Positions count from the first letter of the chain named. Read-outs that look alike come from different tables or passages of the source.
What was measured:
MGL = biological target: T1, MGL (Rattus norvegicus, UniProt Q8R431); assay: 2-AG accumulation assay in rat brain homogenate; format: biochemical; details: rat brain homogenate, 2-AG accumulation as percent of vehicle; for 2-AG accumulation, % of vehicle control at 1 µM: compound 1 μM, read-out: Rat Brain 2AG % VehCntrl (%) @ 1 μM
T1 construct: one g rat brain was homogenized using a Polytron homogenizer; from tissue; host or cells: rat brain homogenate
T1 sequence (Q8R431 1-303): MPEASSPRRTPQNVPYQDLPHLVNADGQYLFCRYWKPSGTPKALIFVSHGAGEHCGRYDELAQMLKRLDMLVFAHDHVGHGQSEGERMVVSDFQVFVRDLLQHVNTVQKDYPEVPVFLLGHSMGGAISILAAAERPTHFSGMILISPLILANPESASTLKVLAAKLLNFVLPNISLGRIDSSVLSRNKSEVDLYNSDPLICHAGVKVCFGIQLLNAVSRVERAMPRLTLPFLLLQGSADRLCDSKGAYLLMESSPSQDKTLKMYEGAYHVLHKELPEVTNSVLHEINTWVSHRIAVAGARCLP

mutant MGL = biological target: T2, mutant MGL (Homo sapiens, UniProt Q99685, L169S/L176S); assay: MGL ThermoFluor assay - mutant; format: binding
T2 sequence (Q99685 1-303 L169S/L176S): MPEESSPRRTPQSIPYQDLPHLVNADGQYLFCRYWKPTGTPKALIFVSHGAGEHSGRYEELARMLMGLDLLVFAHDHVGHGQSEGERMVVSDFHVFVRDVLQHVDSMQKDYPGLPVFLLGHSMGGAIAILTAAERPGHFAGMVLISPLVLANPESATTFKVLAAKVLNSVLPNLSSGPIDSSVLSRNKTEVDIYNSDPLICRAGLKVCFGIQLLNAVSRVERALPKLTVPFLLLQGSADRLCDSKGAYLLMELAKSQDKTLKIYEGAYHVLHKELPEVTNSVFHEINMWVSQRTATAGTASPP

[1] = biological target: T3, purified wild type MGL (wt-MGLL 6H-11-313) (Homo sapiens, UniProt Q99685)
T3 sequence (Q99685 1-303): T2 sequence (Q99685 1-303 L169S/L176S) with S169L, S176L

[2] = ThermoFluor concentration-response, read-out: MGL mutant ThermoFluor Kd
[3] = compound concentration measured by qNMR, read-out: MGL mutant ThermoFluor qKd (using qNMR conc.)
[4] = ThermoFluor, compound concentration measured by qNMR, read-out: MGL mutant ThermoFluor qKd (μM) (using qNMR conc.)
[5] = ThermoFluor, compound concentration measured by qNMR, read-out: MGL mutant ThermoFluor qKd (using qNMR conc.)
[6] = ThermoFluor thermal stability binding assay, read-out: MGL mutant ThermoFluor Kd

O=C(c1ccc2c(ccn2-c2ccc(C(F)(F)F)cc2)c1)N1CC(N2CCN(C(=O)c3ccns3)CC2)C1 [Cpd 1097, 5-({3-[4-(Isothiazol-5-ylcarbonyl)piperazin-1-yl]azetidin-1-yl}carbonyl)-1-[4-(trifluoromethyl)phenyl]-1H-indole]
2-AG accumulation, % of vehicle control at 1 µM (MGL): 422%
Kd (mutant MGL; [2]): 0.032 µM
IC50 [1]: 12 nM

O=C(c1cscn1)N1CCN(C2CN(C(=O)c3sc4cc(-c5ccccc5)ccc4c3C(F)(F)F)C2)CC1 [Cpd 1098, 1-(1-{[6-Phenyl-3-(trifluoromethyl)-1-benzothiophen-2-yl]carbonyl}azetidin-3-yl)-4-(1,3-thiazol-4-ylcarbonyl)piperazine]
2-AG accumulation, % of vehicle control at 1 µM (MGL): 296%
Kd (mutant MGL; [2]): 0.031 µM
IC50 [1]: 12 nM

O=C(c1ccc2c(c1)CCN2c1ccc(F)cc1)N1CC(N2CCN(C(=O)c3ccc[nH]3)CC2)C1 [Cpd 1099]
2-AG accumulation, % of vehicle control at 1 µM (MGL): 508%
Kd (mutant MGL; [3]): 0.02 µM
IC50 [1]: 12 nM

Cn1ccc2cc(C(=O)N3CC(N4CCN(C(=O)c5nccs5)CC4)C3)cc(-c3ccc(F)cc3)c21 [Cpd 1101]
2-AG accumulation, % of vehicle control at 1 µM (MGL): 501%
Kd (mutant MGL; [4]): 0.044 µM
IC50 [1]: 12 nM

O=C(c1cc(F)cc(-c2ccccc2)c1)N1CC(N2CCN(C(=O)c3nccs3)CC2)C1 [Cpd 1104, 1-{1-[(5-Fluorobiphenyl-3-yl)carbonyl]azetidin-3-yl}-4-(1,3-thiazol-2-ylcarbonyl)piperazine]
2-AG accumulation, % of vehicle control at 1 µM (MGL): 334%
Kd (mutant MGL; [2]): 0.199 µM
IC50 [1]: 13 nM

Cc1ccc(-n2ccc3cc(C(=O)N4CC(N5CCN(C(=O)c6nccs6)CC5)C4)ccc32)cn1 [Cpd 1105, 1-(6-Methylpyridin-3-yl)-5-({3-[4-(1,3-thiazol-2-ylcarbonyl)piperazin-1-yl]azetidin-1-yl}carbonyl)-1H-indole]
2-AG accumulation, % of vehicle control at 1 µM (MGL): 734%
Kd (mutant MGL; [5]): 0.023 µM
IC50 [1]: 13 nM

COc1cc(-n2ccc3cc(C(=O)N4CC(N5CCN(C(=O)c6nccs6)CC5)C4)ccc32)ccn1 [Cpd 1107, 1-(2-Methoxypyridin-4-yl)-5-({3-[4-(1,3-thiazol-2-ylcarbonyl)piperazin-1-yl]azetidin-1-yl}carbonyl)-1H-indole]
2-AG accumulation, % of vehicle control at 1 µM (MGL): 838%
Kd (mutant MGL; [5]): 0.003 µM
IC50 [1]: 14 nM

N#Cc1ccccc1-n1ccc2cc(C(=O)N3CC(N4CCN(C(=O)c5nccs5)CC4)C3)ccc21 [Cpd 1109]
2-AG accumulation, % of vehicle control at 1 µM (MGL): 680%
Kd (mutant MGL; [6]): 0.022 µM
IC50 [1]: 15 nM

O=C(c1cc(F)c2c(ccn2-c2ccc(F)cc2)c1)N1CC(N2CCN(C(=O)c3cscn3)CC2)C1 [Cpd 1111]
2-AG accumulation, % of vehicle control at 1 µM (MGL): 508%
Kd (mutant MGL; [3]): 0.009 µM
IC50 [1]: 16 nM

Cc1cc(C(=O)N2CC(N3CCN(C(=O)c4ccns4)CC3)C2)ccc1-c1cccc(C(F)(F)F)c1 [Cpd 1114, 1-(Isothiazol-5-ylcarbonyl)-4-(1-{[2-methyl-3′-(trifluoromethyl)biphenyl-4-yl]carbonyl}azetidin-3-yl)piperazine]
2-AG accumulation, % of vehicle control at 1 µM (MGL): 293%
Kd (mutant MGL; [2]): 0.049 µM
IC50 [1]: 16 nM

O=C(c1ccc2c(ccn2-c2ccc(C(F)(F)F)cc2)c1)N1CCN(C2CN(C(=O)c3ccc[nH]3)C2)CC1 [Cpd 1120, 5-({4-[1-(1H-Pyrrol-2-ylcarbonyl)azetidin-3-yl]piperazin-1-yl}carbonyl)-1-[4-(trifluoromethyl)phenyl]-1H-indole]
2-AG accumulation, % of vehicle control at 1 µM (MGL): 867%
Kd (mutant MGL; [5]): 0.02 µM
IC50 [1]: 18 nM

O=C(c1ccc(-c2ccccc2)s1)N1CC(N2CCN(C(=O)c3nccs3)CC2)C1 [Cpd 1122, 1-{1-[(5-Phenylthiophen-2-yl)carbonyl]azetidin-3-yl}-4-(1,3-thiazol-2-ylcarbonyl)piperazine]
2-AG accumulation, % of vehicle control at 1 µM (MGL): 143%
Kd (mutant MGL; [2]): 0.027 µM
IC50 [1]: 18 nM

Cc1cccc(-n2ccc3cc(C(=O)N4CC(N5CCN(C(=O)c6nccs6)CC5)C4)ccc32)n1 [Cpd 1126, 1-(6-Methylpyridin-2-yl)-5-({3-[4-(1,3-thiazol-2-ylcarbonyl)piperazin-1-yl]azetidin-1-yl}carbonyl)-1H-indole]
2-AG accumulation, % of vehicle control at 1 µM (MGL): 850%
Kd (mutant MGL; [5]): 0.008 µM
IC50 [1]: 19 nM

Cc1cn(-c2ccc(F)c(F)c2)c2ccc(C(=O)N3CCN(C4CN(C(=O)c5nccs5)C4)CC3)cc12 [Cpd 1134, 1-(3,4-Difluorophenyl)-3-methyl-5-({4-[1-(1,3-thiazol-2-ylcarbonyl)azetidin-3-yl]piperazin-1-yl}carbonyl)-1H-indole]
2-AG accumulation, % of vehicle control at 1 µM (MGL): 774%
Kd (mutant MGL; [5]): 0.009 µM
IC50 [1]: 25 nM

O=C(c1ccc2c(ccn2-c2ccccn2)c1)N1CC(N2CCN(C(=O)c3nccs3)CC2)C1 [Cpd 1135, 1-Pyridin-2-yl-5-({3-[4-(1,3-thiazol-2-ylcarbonyl)piperazin-1-yl]azetidin-1-yl}carbonyl)-1H-indole]
2-AG accumulation, % of vehicle control at 1 µM (MGL): 884%
Kd (mutant MGL; [5]): 0.015 µM
IC50 [1]: 25 nM

Cn1nc(-c2ccccc2)c2cc(C(=O)N3CC(N4CCN(C(=O)c5nccs5)CC4)C3)ccc21 [Cpd 1137, 1-Methyl-3-phenyl-5-({3-[4-(1,3-thiazol-2-ylcarbonyl)piperazin-1-yl]azetidin-1-yl}carbonyl)-1H-indazole]
2-AG accumulation, % of vehicle control at 1 µM (MGL): 582%
Kd (mutant MGL; [2]): 0.01 µM
IC50 [1]: 26 nM

O=C(c1ccc(-c2ccc(C(F)(F)F)s2)cc1)N1CC(N2CCN(C(=O)c3ccc[nH]3)CC2)C1 [Cpd 1138]
2-AG accumulation, % of vehicle control at 1 µM (MGL): 271%
Kd (mutant MGL; [2]): 0.018 µM
IC50 [1]: 26 nM

O=C(c1ccoc1)N1CCN(C2CN(C(=O)c3ccc(-c4ccccc4)cc3)C2)CC1 [Cpd 1140]
2-AG accumulation, % of vehicle control at 1 µM (MGL): 200%
Kd (mutant MGL; [6]): 0.112 µM
IC50 [1]: 27 nM

O=C(c1cc(-c2ccccc2)cc(C(F)(F)F)c1)N1CC(N2CCN(C(=O)c3nccs3)CC2)C1 [Cpd 1144, 1-(1,3-Thiazol-2-ylcarbonyl)-4-(1-{[5-(trifluoromethyl)biphenyl-3-yl]carbonyl}azetidin-3-yl)piperazine]
2-AG accumulation, % of vehicle control at 1 µM (MGL): 212%
Kd (mutant MGL; [2]): 0.181 µM
IC50 [1]: 31 nM

Cc1nc(-c2ccc(F)cc2)sc1C(=O)N1CC(N2CCN(C(=O)c3nccs3)CC2)C1 [Cpd 1150]
2-AG accumulation, % of vehicle control at 0.1 µM (MGL; compound 0.1 μM, read-out: Rat Brain 2AG % VehCntrl (%) @ 0.1 μM): 139%
2-AG accumulation, % of vehicle control at 1 µM (MGL): 459%
2-AG accumulation, % of vehicle control at 10 µM (MGL; compound 10 μM, read-out: Rat Brain 2AG % VehCntrl (%) @ 10 μM): 715%
Kd (mutant MGL; [2]): 0.013 µM
IC50 [1]: 36 nM

Cc1cn(-c2ccccc2)c2ccc(C(=O)N3CC(N4CCN(C(=O)c5cscn5)CC4)C3)cc12 [Cpd 1152]
2-AG accumulation, % of vehicle control at 1 µM (MGL): 394%
Kd (mutant MGL; [6]): 0.007 µM
IC50 [1]: 38 nM

O=C(c1ccc2c(ccn2-c2ccc(F)cc2)n1)N1CC(N2CCN(C(=O)c3nccs3)CC2)C1 [Cpd 1153]
2-AG accumulation, % of vehicle control at 1 µM (MGL): 404%
Kd (mutant MGL; [4]): 0.004 µM
IC50 [1]: 39 nM

O=C(c1nccs1)N1CCN(C2CN(C(=O)c3cccc4nc(-c5ccccc5)oc34)C2)CC1 [Cpd 1154, 2-Phenyl-7-({3-[4-(1,3-thiazol-2-ylcarbonyl)piperazin-1-yl]azetidin-1-yl}carbonyl)-1,3-benzoxazole]
2-AG accumulation, % of vehicle control at 1 µM (MGL): 558%
Kd (mutant MGL; [6]): 0.006 µM
IC50 [1]: 40 nM

Cc1ccc(-c2nnc(-c3ccc(C(=O)N4CC(N5CCN(C(=O)c6nccs6)CC5)C4)cc3)o2)cc1 [Cpd 1156]
2-AG accumulation, % of vehicle control at 1 µM (MGL): 681%
Kd (mutant MGL; [2]): 0.09 µM
IC50 [1]: 41 nM

O=C(c1cc(-c2ccc(F)cc2)cs1)N1CC(N2CCN(C(=O)c3nccs3)CC2)C1 [Cpd 1157]
2-AG accumulation, % of vehicle control at 1 µM (MGL): 252%
Kd (mutant MGL; [4]): 0.179 µM
IC50 [1]: 41 nM

O=C(c1cc(-c2cccc(F)c2)cs1)N1CC(N2CCN(C(=O)c3nccs3)CC2)C1 [Cpd 1160]
2-AG accumulation, % of vehicle control at 1 µM (MGL): 260%
Kd (mutant MGL; [4]): 0.139 µM
IC50 [1]: 45 nM

O=C(c1ccc(-c2ccc(C(F)(F)F)s2)cc1)N1CCN(C2CN(C(=O)c3nccs3)C2)CC1 [Cpd 1161]
2-AG accumulation, % of vehicle control at 1 µM (MGL): 459%
Kd (mutant MGL; [2]): 0.025 µM
IC50 [1]: 46 nM

O=C(c1ccc(-c2ccc(C(F)(F)F)s2)cc1)N1CCN(C2CN(C(=O)c3ccc[nH]3)C2)CC1 [Cpd 1162]
2-AG accumulation, % of vehicle control at 1 µM (MGL): 237%
Kd (mutant MGL; [3]): 0.014 µM
IC50 [1]: 47 nM
